A word on the IC50: it is the concentration that inhibits the measured activity by half. A high value points to weaker potency.

The values below come from patent US9290496B2, “Purine derivatives” (PFIZER INC., priority 2013, dated 2016).

Common to all, as to assay type: cell-based
One assay concerns the target T1, EGFR del (PC9) (Homo sapiens, UniProt P00533, DEL746-750).
T1 construct: detects endogenous levels of phospho-EGF Receptor (Tyr1068) protein; host or cells: PC9
In words: pEGFR Y1068 ELISA assay, PC9 cells. The conditions noted are these: inhibition of phosphorylation of EGFR at Tyr1068; PC9 NSCLC cells; 2 hr compound incubation.

In a further assay the target is T2, EGFR del/T790M (PC9-DRH) (Homo sapiens, UniProt P00533, DEL746-750/T790M).
T2 construct: detects endogenous levels of phospho-EGF Receptor (Tyr1068) protein; endogenous in cells; host or cells: PC9-DRH (dacomitinib-resistant derivative of PC9, generated in house)
T2 sequence (P00533 with tags, fused parts or gaps DEL746-750/T790M): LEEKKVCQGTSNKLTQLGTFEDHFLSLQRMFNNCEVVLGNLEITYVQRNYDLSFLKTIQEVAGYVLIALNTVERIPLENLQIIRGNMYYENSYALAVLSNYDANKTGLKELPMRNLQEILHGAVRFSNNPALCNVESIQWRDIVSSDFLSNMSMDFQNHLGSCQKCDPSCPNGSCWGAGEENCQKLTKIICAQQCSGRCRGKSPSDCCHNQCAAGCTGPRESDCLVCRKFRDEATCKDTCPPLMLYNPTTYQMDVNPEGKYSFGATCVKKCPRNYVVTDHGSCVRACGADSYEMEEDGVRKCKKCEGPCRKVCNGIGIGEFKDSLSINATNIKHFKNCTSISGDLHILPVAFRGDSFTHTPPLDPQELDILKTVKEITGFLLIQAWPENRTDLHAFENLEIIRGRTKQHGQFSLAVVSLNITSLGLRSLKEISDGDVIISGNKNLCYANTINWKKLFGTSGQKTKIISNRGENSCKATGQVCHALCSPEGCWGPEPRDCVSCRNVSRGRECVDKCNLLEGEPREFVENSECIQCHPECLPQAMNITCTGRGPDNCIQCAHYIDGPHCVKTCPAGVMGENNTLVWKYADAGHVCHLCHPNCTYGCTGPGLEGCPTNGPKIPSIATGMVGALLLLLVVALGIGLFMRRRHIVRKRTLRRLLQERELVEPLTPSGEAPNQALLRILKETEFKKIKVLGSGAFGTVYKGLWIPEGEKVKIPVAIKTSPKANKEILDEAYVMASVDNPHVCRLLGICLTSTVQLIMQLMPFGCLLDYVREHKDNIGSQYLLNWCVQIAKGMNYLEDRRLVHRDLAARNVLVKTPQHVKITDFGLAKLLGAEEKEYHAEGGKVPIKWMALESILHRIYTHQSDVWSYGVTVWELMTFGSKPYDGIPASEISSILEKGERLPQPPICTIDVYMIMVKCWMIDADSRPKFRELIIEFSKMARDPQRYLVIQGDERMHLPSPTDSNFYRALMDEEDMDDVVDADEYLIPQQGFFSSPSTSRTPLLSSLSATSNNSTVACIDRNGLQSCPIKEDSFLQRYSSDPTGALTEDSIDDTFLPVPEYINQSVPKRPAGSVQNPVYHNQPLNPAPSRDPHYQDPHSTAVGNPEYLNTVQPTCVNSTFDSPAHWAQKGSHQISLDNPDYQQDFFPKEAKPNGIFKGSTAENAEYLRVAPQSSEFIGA
Description: pEGFR Y1068 ELISA assay, PC9-DRH cells. The conditions noted are these: inhibition of phosphorylation of EGFR at Tyr1068; PC9-DRH cells (dacomitinib resistant); 2 hr compound incubation. On the technique in general: An ELISA detects its analyte on a solid surface through an enzyme-linked reagent.

Assay [1] concerns the target T3, EGFR L858R+T790M, endogenous (NCI-H1975) (Homo sapiens, UniProt P00533, L858R/T790M).
T3 construct: NCI-H1975 (EGFR L858R+T790M, endogenous); host or cells: NCI-H1975
Description: pEGFR Y1068 ELISA assay, NCI-H1975 cells. The conditions noted are these: inhibition of phosphorylation of EGFR at Tyr1068; NCI-H1975 NSCLC cells; 2 hr compound incubation.

Assay [2] addresses T4, EGFR wildtype, endogenous (A549) (Homo sapiens, UniProt P00533).
T4 construct: A549 (EGFR wildtype, endogenous); host or cells: A549 (stimulated with EGF)
In words: pEGFR Y1068 ELISA assay, A549 cells. The conditions noted are these: inhibition of phosphorylation of EGFR at Tyr1068; A549 NSCLC cells; 2 hr compound incubation, then stimulated 10 min with EGF (40 ng/mL).

Another assay deals with T5, EGFR L858R (NCI-H3255) (Homo sapiens, UniProt P00533, L858R).
T5 construct: detects endogenous levels of phospho-EGF Receptor (Tyr1068) protein; host or cells: NCI-H3255
T5 sequence (P00533 25-1210 L858R): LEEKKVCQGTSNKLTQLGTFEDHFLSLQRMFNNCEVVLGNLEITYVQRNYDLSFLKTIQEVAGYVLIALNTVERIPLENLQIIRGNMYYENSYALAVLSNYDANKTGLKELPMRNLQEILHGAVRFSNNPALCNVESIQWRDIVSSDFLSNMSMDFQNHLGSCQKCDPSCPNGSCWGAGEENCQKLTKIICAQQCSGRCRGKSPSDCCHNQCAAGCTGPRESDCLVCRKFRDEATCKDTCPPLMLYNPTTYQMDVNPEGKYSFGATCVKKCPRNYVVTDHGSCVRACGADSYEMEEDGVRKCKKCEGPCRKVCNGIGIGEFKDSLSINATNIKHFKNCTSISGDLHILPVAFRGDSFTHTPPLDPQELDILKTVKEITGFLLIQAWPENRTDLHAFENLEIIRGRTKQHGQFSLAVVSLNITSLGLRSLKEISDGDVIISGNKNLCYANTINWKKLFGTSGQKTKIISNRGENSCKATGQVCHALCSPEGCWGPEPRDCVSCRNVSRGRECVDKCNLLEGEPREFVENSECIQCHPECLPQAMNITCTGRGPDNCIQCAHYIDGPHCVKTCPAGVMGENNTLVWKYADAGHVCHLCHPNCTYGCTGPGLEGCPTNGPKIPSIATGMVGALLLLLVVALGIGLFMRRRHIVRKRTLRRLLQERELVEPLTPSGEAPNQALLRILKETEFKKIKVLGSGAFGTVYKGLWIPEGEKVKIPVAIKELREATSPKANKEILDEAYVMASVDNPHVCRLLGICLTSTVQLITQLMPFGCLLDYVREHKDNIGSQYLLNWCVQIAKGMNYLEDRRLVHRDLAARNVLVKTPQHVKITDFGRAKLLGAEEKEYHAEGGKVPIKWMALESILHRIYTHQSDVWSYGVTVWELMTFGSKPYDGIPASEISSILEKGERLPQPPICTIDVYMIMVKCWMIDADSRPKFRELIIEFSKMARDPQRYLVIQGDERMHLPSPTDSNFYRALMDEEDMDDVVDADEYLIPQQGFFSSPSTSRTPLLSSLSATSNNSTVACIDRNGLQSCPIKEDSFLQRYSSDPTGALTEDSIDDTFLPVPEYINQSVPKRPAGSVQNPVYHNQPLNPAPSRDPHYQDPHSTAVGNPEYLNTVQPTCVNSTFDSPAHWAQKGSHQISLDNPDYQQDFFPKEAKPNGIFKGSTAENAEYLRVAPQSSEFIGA
Description: pEGFR Y1068 ELISA assay, NCI-H3255 cells. The conditions noted are these: inhibition of phosphorylation of EGFR at Tyr1068; NCI-H3255 NSCLC cells; 2 hr compound incubation.

T4 sequence (P00533 25-1210): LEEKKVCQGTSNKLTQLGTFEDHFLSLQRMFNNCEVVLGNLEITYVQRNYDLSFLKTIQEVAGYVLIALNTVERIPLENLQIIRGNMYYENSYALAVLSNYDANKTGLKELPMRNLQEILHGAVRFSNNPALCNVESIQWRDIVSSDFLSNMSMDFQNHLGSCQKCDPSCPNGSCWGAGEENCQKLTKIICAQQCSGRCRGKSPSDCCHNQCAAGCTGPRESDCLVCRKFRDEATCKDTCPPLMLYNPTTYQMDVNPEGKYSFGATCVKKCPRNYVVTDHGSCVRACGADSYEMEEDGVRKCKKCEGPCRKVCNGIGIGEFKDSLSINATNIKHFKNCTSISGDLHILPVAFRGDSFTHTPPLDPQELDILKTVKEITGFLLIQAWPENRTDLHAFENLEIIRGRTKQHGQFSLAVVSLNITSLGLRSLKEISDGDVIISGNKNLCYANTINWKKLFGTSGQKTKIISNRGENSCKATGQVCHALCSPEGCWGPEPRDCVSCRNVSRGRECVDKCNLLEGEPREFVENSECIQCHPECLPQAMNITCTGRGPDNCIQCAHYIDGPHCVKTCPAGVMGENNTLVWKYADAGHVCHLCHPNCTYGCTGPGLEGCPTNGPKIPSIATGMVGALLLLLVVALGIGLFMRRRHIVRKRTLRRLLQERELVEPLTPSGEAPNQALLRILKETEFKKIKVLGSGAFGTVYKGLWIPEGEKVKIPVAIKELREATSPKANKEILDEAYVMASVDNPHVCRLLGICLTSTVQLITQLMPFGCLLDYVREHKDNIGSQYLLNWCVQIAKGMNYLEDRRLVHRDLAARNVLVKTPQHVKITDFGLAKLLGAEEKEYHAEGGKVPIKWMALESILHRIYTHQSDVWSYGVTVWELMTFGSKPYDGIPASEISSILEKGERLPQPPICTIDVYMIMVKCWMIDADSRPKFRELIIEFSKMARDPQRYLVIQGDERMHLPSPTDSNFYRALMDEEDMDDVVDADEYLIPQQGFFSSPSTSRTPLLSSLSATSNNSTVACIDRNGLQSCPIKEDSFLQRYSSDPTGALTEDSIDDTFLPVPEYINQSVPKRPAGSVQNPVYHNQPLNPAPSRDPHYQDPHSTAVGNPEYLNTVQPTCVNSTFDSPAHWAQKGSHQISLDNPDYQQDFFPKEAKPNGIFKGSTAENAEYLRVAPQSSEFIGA
T3 sequence (P00533 25-1210 T790M/L858R): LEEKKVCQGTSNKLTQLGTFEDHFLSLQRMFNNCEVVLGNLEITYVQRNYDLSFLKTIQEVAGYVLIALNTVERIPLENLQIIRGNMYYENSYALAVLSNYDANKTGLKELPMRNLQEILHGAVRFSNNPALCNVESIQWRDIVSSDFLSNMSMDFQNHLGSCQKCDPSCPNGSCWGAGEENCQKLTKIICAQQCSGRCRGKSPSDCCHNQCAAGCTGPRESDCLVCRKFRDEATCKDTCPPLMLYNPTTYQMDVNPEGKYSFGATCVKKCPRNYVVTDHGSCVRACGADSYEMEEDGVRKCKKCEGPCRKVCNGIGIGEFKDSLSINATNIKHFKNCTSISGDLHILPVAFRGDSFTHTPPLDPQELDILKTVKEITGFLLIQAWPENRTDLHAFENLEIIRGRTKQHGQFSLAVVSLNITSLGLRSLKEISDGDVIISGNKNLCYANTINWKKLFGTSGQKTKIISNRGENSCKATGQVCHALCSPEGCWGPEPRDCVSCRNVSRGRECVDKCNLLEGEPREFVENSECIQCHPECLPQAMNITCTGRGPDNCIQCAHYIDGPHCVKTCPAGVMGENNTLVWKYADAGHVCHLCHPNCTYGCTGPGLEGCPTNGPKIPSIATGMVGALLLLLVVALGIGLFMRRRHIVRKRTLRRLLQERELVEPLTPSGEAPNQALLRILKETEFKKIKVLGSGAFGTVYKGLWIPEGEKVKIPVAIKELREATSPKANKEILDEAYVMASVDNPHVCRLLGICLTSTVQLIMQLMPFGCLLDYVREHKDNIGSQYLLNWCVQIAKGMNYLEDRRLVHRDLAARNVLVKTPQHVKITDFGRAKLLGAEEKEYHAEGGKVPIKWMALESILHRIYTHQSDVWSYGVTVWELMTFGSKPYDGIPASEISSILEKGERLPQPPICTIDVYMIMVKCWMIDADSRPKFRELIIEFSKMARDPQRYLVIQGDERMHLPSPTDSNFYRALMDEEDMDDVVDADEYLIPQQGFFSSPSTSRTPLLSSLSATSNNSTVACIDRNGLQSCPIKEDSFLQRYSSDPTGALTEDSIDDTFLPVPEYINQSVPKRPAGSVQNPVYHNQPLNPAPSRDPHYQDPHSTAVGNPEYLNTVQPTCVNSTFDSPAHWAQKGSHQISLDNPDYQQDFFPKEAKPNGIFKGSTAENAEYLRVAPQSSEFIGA

On to `C=CC(=O)N[C@@H]1CN(c2nc(Nc3cn(CC)nc3OC)c3ncn(C)c3n2)C[C@H]1F` [Example 88, N-((3R,4R)-1-(6-((1-ethyl-3-methoxy-1H-pyrazol-4-yl)amino)-9-methyl-9H-purin-2-yl)-4-fluoropyrrolidin-3-yl)acrylamide], for which the IC50 was determined as 6 nM against EGFR del (PC9); 1 nM against EGFR del/T790M (PC9-DRH); 6 nM in assay [1]; 194 nM in assay [2]; 2 nM against EGFR L858R (NCI-H3255).
